Data reported in patent US12304890B2, “R-type pyridyloxycarboxylic acid, salt and ester derivative thereof, and preparation method therefor, and herbicidal composition and application thereof” (Qingdao Kingagroot Chemical Compound Co., Ltd., priority 2018, dated 2025).

Key:
Type in all cases: in vivo
[1] = tested on: Monocotyledonous and dicotyledonous weed seeds and main crop seeds; assay: Post-emergence test experiment, other weeds and crops (Table 4, 1000 g a.i./ha); conditions: 3 weeks in greenhouse, fresh weight inhibition
How it was run: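 Weed and crop seeds (wheat, corn, rice, soybean, cotton, oilseed, millet, sorghum) sown in soil pots in a greenhouse and sprayed at 2-3 leaf stage, 2 weeks after sowing. Compound in acetone/tween-80 with methyl oleate concentrate (1.5 L/ha) as synergist. Effect recorded as fresh-weight growth inhibition rate.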

Echinochloa crusgalli = assay: Post-emergence test experiment, Echinochloa crusgalli; conditions: 1000 g a.i./ha, 3 weeks in greenhouse, fresh weight inhibition
Protocol: (§1) The above described growth inhibition rate is fresh weight inhibition rate.
(§2) Post-emergence test experiment: Monocotyledonous and dicotyledonous weed seeds and main crop seeds (i. e. wheat, corn, rice, soybean, cotton, oilseed, millet and sorghum.) were put into a plastic pot loaded with soil. Then covered with 0.5-2 cm soil, the seeds were allowed to grow in good greenhouse environment. The test plants were treated at 2-3 leaf stage 2 weeks after sowing. The test compounds of the invention were dissolved with acetone respectively, then added with tween-80, and using 1.5 liters per hectare of an emulsible concentrate of methyl oleate as a synergist, and diluted by certain amount of water to certain concentration. The solution was sprayed to the plants with a sprayer. Then the plants were cultured for 3 weeks in the greenhouse, and the experiment result of weed controlling effect was listed in tables 4-5.

Digitaria sanguinalis = assay: Post-emergence test experiment, Digitaria sanguinalis; conditions: 1000 g a.i./ha, 3 weeks in greenhouse, fresh weight inhibition
Protocol: as §1, §2

SMILES | Activity level (growth inhibition rate), Abutilon theophrasti Medic. [1] | Activity level (growth inhibition rate), Galium aparine [1] | Activity level (growth inhibition rate), Monochoria Vaginalis [1] | Activity level (growth inhibition rate), Echinochloa crusgalli (Echinochloa crusgalli) | Activity level (growth inhibition rate), Digitaria sanguinalis (Digitaria sanguinalis)
CC(C)SC(=O)[C@@H](C)Oc1nc(F)c(Cl)c(N)c1Cl [Compound 2-76] | 5 (Level 5: the growth inhibition rate is greater than 85%) | 5 (Level 5: the growth inhibition rate is greater than 85%) | 5 (Level 5: the growth inhibition rate is greater than 85%) | 5 (Level 5: the growth inhibition rate is greater than 85%) | 5 (Level 5: the growth inhibition rate is greater than 85%)
CC(C)COC(=O)[C@@H](C)Oc1nc(F)c(Cl)c(N)c1Cl [Compound 2-79] | 5 (Level 5: the growth inhibition rate is greater than 85%) | 5 (Level 5: the growth inhibition rate is greater than 85%) | 5 (Level 5: the growth inhibition rate is greater than 85%) | 5 (Level 5: the growth inhibition rate is greater than 85%) | 5 (Level 5: the growth inhibition rate is greater than 85%)
CC(C)CSC(=O)[C@@H](C)Oc1nc(F)c(Cl)c(N)c1Cl [Compound 2-80] | 5 (Level 5: the growth inhibition rate is greater than 85%) | 5 (Level 5: the growth inhibition rate is greater than 85%) | 5 (Level 5: the growth inhibition rate is greater than 85%) | 5 (Level 5: the growth inhibition rate is greater than 85%) | 5 (Level 5: the growth inhibition rate is greater than 85%)
CCC(C)OC(=O)[C@@H](C)Oc1nc(F)c(Cl)c(N)c1Cl (stereo partly drawn) [Compound 2-81] | 5 (Level 5: the growth inhibition rate is greater than 85%) | 5 (Level 5: the growth inhibition rate is greater than 85%) | 5 (Level 5: the growth inhibition rate is greater than 85%) | 5 (Level 5: the growth inhibition rate is greater than 85%) | 5 (Level 5: the growth inhibition rate is greater than 85%)
CCC(C)SC(=O)[C@@H](C)Oc1nc(F)c(Cl)c(N)c1Cl (stereo partly drawn) [Compound 2-82] | 5 (Level 5: the growth inhibition rate is greater than 85%) | 5 (Level 5: the growth inhibition rate is greater than 85%) | 5 (Level 5: the growth inhibition rate is greater than 85%) | 5 (Level 5: the growth inhibition rate is greater than 85%) | 5 (Level 5: the growth inhibition rate is greater than 85%)
C[C@@H](Oc1nc(F)c(Cl)c(N)c1Cl)C(=O)OC(C)(C)C [Compound 2-83] | 5 (Level 5: the growth inhibition rate is greater than 85%) | 5 (Level 5: the growth inhibition rate is greater than 85%) | 5 (Level 5: the growth inhibition rate is greater than 85%) | 5 (Level 5: the growth inhibition rate is greater than 85%) | 5 (Level 5: the growth inhibition rate is greater than 85%)
C[C@@H](Oc1nc(F)c(Cl)c(N)c1Cl)C(=O)SC(C)(C)C [Compound 2-84] | 5 (Level 5: the growth inhibition rate is greater than 85%) | 5 (Level 5: the growth inhibition rate is greater than 85%) | 5 (Level 5: the growth inhibition rate is greater than 85%) | 5 (Level 5: the growth inhibition rate is greater than 85%) | 5 (Level 5: the growth inhibition rate is greater than 85%)
CCCCCOC(=O)[C@@H](C)Oc1nc(F)c(Cl)c(N)c1Cl [Compound 2-85] | 5 (Level 5: the growth inhibition rate is greater than 85%) | 5 (Level 5: the growth inhibition rate is greater than 85%) | 5 (Level 5: the growth inhibition rate is greater than 85%) | 5 (Level 5: the growth inhibition rate is greater than 85%) | 5 (Level 5: the growth inhibition rate is greater than 85%)
CCC(C)COC(=O)[C@@H](C)Oc1nc(F)c(Cl)c(N)c1Cl (stereo partly drawn) [Compound 2-87] | 5 (Level 5: the growth inhibition rate is greater than 85%) | 5 (Level 5: the growth inhibition rate is greater than 85%) | 5 (Level 5: the growth inhibition rate is greater than 85%) | 5 (Level 5: the growth inhibition rate is greater than 85%) | 5 (Level 5: the growth inhibition rate is greater than 85%)
CCC(C)CSC(=O)[C@@H](C)Oc1nc(F)c(Cl)c(N)c1Cl (stereo partly drawn) [Compound 2-88] | 5 (Level 5: the growth inhibition rate is greater than 85%) | 5 (Level 5: the growth inhibition rate is greater than 85%) | 5 (Level 5: the growth inhibition rate is greater than 85%) | 5 (Level 5: the growth inhibition rate is greater than 85%) | 5 (Level 5: the growth inhibition rate is greater than 85%)
CC(C)CCOC(=O)[C@@H](C)Oc1nc(F)c(Cl)c(N)c1Cl [Compound 2-89] | 5 (Level 5: the growth inhibition rate is greater than 85%) | 5 (Level 5: the growth inhibition rate is greater than 85%) | 5 (Level 5: the growth inhibition rate is greater than 85%) | 5 (Level 5: the growth inhibition rate is greater than 85%) | 5 (Level 5: the growth inhibition rate is greater than 85%)
CC(C)CCSC(=O)[C@@H](C)Oc1nc(F)c(Cl)c(N)c1Cl [Compound 2-90] | 5 (Level 5: the growth inhibition rate is greater than 85%) | 5 (Level 5: the growth inhibition rate is greater than 85%) | 5 (Level 5: the growth inhibition rate is greater than 85%) | 5 (Level 5: the growth inhibition rate is greater than 85%) | 5 (Level 5: the growth inhibition rate is greater than 85%)
